In patent US11649227B2, “Allosteric chromenone inhibitors of phosphoinositide 3-kinase (PI3K) for the treatment of disease” (Petra Pharma Corporation, priority 2020, dated 2023):

Tests used:
[1] = target: human full length PIK3CA Wild-type (p110α/p85α complex) (Homo sapiens (Human), UniProt P42336); test: PI3K-Alpha kinase (PIK3CA) activity, wild-type, Transcreener ADP2 FI assay; conditions: PI3K-α (PIK3CA) wild-type, biochemical
Protocol: (§1) PI3K-Alpha kinase (PIK3CA) activity, wild-type and H1047R mutant and determining IC50 values for inhibitors
(§2) Recombinant, catalytically active human full length PIK3KA Wild-type and H1047R mutant were purchased as 1:1 complex of N-terminal 6×his tagged p110<(catalytic) and untagged p85<(regulatory subunit) from EMD Millipore Sigma (cat. no. 14-602M and 14-792M, respectively). The enzyme stocks were diluted to 5× stocks in buffer (20 mM HEPES pH 7.4, 100 mM NaCl, 0.5 mM EGTA, 0.01% triton-x-100) just before use. PIP2diC8 (Avanti Polar Lipids Inc., cat. no. 850185) or phosphoinositol-4,5-bisphosphate with phosphoserine (PIP2:PS) membrane (Thermo Fisher Scientific, cat. no. PV5100) was used as lipid substrates. PIP2diC8 lyophilized powder and PIP2:PS (1:19) membrane stock (1 mM in PIP2) were separately dissolved in milliQ water to a concentration of 250 uM and stored in −20° C. 10 mM stocks of compounds were serially diluted (3×) in neat DMSO and stored in a dessicator at room temperature. 5× compound stocks in 25% DMSO were prepared fresh from neat DMSO stocks. Wild-type (WT) and H1047R mutant protein, along with buffer components (except ATP), were incubated with or without compound at 27° C. for 1h. After incubation, the reaction was initiated by the addition of 5 uL of 125 uM ATP. A typical assay mixture (25 uL) comprised 40 mM HEPES buffer, pH 7.4, 25 mM MgCl2, 0.01% v/v triton-X-100, 5% v/v DMSO, 20 mM NaCl, 1-5 nM wt or H1047R, 25 uM ATP, and 50 uM PTP2diC8 or PTP2 in membrane. The reaction was allowed to proceed until about […] (2.5 uM ADP) after which time, 10 uL of reaction mixture was quenched with 25 uL of transcreener reagent (Transcreener ADP2 FI assay kit, BellBrook labs, Cat. No. 3013). The contents were incubated at rt for 1h and fluorescence was measured using a plate reader (Paradigm, Molecular Devices). The same assay was also run at pH 6.0 or 6.4 using MOPS buffer (Fisher BioReagents, CAS 1132-61-2). A calibration curve was generated under identical buffer conditions with varying ADP amounts. Using that, the observed fluorescence was converted to uM ADP. A plot between [ADP] and log[I] yielded the dose-response curves that enabled the calculation of IC50s.

[2] = target: human full length PIK3CA H1047R mutant (p110α/p85α complex) (Homo sapiens (Human), UniProt P42336, H1047R); test: PI3K-Alpha kinase (PIK3CA) activity, H1047R mutant, Transcreener ADP2 FI assay; conditions: PI3K-α (PIK3CA) H1047R mutant, biochemical
Protocol: as §1, §2

T-47D = test: Cellular Assay T-47D; format: cell-based; conditions: Homo sapiens, T47D; T-47D cells

human full length PIK3CA H1047R mutant (p110α/p85α complex), sequence (P42336 whole entry H1047R): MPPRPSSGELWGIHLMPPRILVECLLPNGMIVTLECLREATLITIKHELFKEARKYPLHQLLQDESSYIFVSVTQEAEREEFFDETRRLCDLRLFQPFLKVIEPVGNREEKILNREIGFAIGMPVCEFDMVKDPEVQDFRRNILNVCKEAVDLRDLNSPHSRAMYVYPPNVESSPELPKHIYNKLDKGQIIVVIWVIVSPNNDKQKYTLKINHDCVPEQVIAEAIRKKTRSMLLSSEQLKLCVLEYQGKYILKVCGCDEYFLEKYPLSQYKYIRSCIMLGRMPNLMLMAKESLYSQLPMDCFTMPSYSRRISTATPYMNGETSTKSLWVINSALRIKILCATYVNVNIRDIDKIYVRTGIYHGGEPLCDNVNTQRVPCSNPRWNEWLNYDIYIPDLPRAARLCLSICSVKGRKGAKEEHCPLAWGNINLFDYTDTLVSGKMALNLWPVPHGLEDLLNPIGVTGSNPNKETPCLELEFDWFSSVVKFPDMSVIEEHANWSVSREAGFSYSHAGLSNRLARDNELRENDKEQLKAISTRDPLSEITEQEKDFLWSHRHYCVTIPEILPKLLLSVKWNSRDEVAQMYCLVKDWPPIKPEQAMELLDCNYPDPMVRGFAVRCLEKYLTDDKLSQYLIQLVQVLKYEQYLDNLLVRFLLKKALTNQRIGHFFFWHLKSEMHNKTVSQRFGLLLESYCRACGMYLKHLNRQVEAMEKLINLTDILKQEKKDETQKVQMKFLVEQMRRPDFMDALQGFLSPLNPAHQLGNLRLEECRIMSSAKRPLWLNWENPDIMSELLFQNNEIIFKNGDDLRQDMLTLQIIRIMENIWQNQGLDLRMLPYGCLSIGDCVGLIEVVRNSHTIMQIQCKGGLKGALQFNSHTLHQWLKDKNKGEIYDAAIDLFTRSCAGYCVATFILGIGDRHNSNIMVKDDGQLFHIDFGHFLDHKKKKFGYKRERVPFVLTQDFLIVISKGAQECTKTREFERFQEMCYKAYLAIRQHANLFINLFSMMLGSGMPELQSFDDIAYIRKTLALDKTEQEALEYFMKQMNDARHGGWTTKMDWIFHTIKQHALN
human full length PIK3CA H1047R mutant (p110α/p85α complex), sequence (P27986 whole entry partner): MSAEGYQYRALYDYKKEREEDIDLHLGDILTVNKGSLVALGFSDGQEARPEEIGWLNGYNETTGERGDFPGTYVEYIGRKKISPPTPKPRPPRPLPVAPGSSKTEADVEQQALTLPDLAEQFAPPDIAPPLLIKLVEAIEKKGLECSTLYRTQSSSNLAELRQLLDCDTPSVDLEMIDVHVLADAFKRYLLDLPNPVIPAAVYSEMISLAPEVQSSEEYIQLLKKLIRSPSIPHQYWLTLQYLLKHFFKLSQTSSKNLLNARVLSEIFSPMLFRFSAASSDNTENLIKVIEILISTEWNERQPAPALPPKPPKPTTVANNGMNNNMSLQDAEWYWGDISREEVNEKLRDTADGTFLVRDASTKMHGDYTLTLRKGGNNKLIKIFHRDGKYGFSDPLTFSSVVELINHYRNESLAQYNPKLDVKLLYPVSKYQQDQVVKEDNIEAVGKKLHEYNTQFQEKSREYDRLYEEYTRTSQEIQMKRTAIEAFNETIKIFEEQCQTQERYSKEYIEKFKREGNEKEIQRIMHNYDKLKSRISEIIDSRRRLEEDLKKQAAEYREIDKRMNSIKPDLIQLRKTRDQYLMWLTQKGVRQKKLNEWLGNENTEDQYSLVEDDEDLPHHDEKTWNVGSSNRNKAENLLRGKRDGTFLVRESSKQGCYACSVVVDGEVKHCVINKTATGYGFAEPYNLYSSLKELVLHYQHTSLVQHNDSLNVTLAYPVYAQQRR
human full length PIK3CA Wild-type (p110α/p85α complex), sequence (P42336 whole entry): as the sequence (P42336 whole entry H1047R) above, with R1047H counted along it
human full length PIK3CA Wild-type (p110α/p85α complex), sequence (P27986 whole entry partner): as the sequence (P27986 whole entry partner) above

Compound | IC50 [1] [nM] | IC50 [2] [nM] | EC50 (T-47D) [nM]
Cc1cc(C(C)Nc2ccccc2C(=O)O)c2oc(N3CCC(C)(C)CC3)c(C)c(=O)c2c1 (single isomer, unassigned) [Example 358, 2-[1-[2-(4,4-Dimethyl-1-piperidyl)-3,6-dimethyl-4-oxo-chromen-8-yl]ethylamino]benzoic acid] |  |  | < 1000
Cc1cc(C(C)Nc2ccccc2C(=O)O)c2oc(N3C4CCCC3C4)cc(=O)c2c1 (single isomer, unassigned; isomer 2) [Example 425, 2-[1-[2-(6-Azabicyclo[3.1.1]heptan-6-yl)-6-methyl-4-oxo-chromen-8-yl]ethylamino]benzoic acid, Isomer 2] | 1000 to 5000 | < 500 | 
Cc1cc(C(C)Nc2ccc(C#N)cc2C(=O)O)c2oc(N3CCC(C)(C)CC3)cc(=O)c2c1 (stereo not shown) [Example 6, 5-Cyano-2-[1-[2-(4,4-dimethyl-1-piperidyl)-6-methyl-4-oxo-chromen-8-yl]ethylamino]benzoic acid] |  |  | 1000 to 5000
Cc1cc(C(C)Nc2ccc(Br)cc2C(=O)O)c2oc(N3CCC(C)(C)CC3)cc(=O)c2c1 (stereo not shown) [Example 7, 5-Bromo-2-[1-[2-(4,4-dimethyl-1-piperidyl)-6-methyl-4-oxo-chromen-8-yl]ethylamino]benzoic acid] |  |  | 5000 to 15000
Cc1cc(C(C)Nc2ccccc2C(=O)O)c2oc(N3CCC(C(F)(F)F)CC3)cc(=O)c2c1 (stereo not shown) [Example 74, 2-[1-[6-Methyl-4-oxo-2-[4-(trifluoromethyl)-1-piperidyl]chromen-8-yl]ethylamino]benzoic acid] | 5000 to 10000 | 500 to 1000 | 
Cc1cc(C(C)Nc2ccccc2C(=O)O)c2oc(N3CCCC4(CCOCC4)C3)cc(=O)c2c1 (stereo not shown) [Example 76, 2-[1-[6-Methyl-2-(9-oxa-2-azaspiro[5.5]undecan-2-yl)-4-oxo-chromen-8-yl]ethylamino]benzoic acid] | 5000 to 10000 | 500 to 1000 | 
Cc1cc(C(C)Nc2ccccc2C(=O)O)c2oc(N3CCOC(c4ccc(S(C)(=O)=O)cc4)C3)cc(=O)c2c1 (stereo not shown) [Example 85, 2-[1-[6-Methyl-2-[2-(4-methylsulfonylphenyl)morpholin-4-yl]-4-oxo-chromen-8-yl]ethylamino]benzoic acid] | 1000 to 5000 | 1000 to 5000 | 
Cc1cc(C(C)Nc2ccccc2C(=O)O)c2oc(N3CCC4(CC3)Cn3nc(C(=O)N(C)C)cc3CO4)cc(=O)c2c1 (stereo not shown) [Example 107, 2-[1-[2-[2-(Dimethylcarbamoyl)spiro[4,7-dihydropyrazolo[5,1-c][1,4]oxazine-6,4′-piperidine]-1′-yl]-6-methyl-4-oxo-chromen-8-yl]ethylamino]benzoic acid] | 5000 to 10000 | 1000 to 5000 | 
Cc1cc(C(C)Nc2ccccc2C(=O)O)c2oc(N3CCCOCC3)cc(=O)c2c1 (stereo not shown) [Example 151, 2-[1-[6-Methyl-2-(1,4-oxazepan-4-yl)-4-oxo-chromen-8-yl]ethylamino]benzoic acid] | 1000 to 5000 | 500 to 1000 | 
Cc1cc([C@@H](C)Nc2ccnnc2C(=O)O)c2oc(N3CCC(C)(C)CC3)cc(=O)c2c1 [Example 251] | 1000 to 5000 | 1000 to 5000 | 
Cc1cc(C(C)Nc2ccc(Cl)nc2C(=O)O)c2oc(N3Cc4ccccc4C3)cc(=O)c2c1 (stereo not shown) [Example 296, 6-Chloro-3-[1-(2-isoindolin-2-yl-6-methyl-4-oxo-chromen-8-yl)ethylamino]pyridine-2-carboxylic acid] | 1000 to 5000 | 500 to 1000 | 

Results, then the compound that gave them:

IC50 [1] [nM] | IC50 [2] [nM] | EC50 (T-47D) [nM] | Compound
< 500 | < 500 |  | Cc1cc(C(C)Nc2ccc(F)cc2C(=O)O)c2oc(N3Cc4ccc(F)cc4C3)cc(=O)c2c1 (single isomer, unassigned) [Example 349, 5-Fluoro-2-[1-[2-(5-fluoroisoindolin-2-yl)-6-methyl-4-oxo-chromen-8-yl]ethylamino]benzoic acid]
500 to 1000 | < 500 |  | Cc1cc(C(C)Nc2ccccc2C(=O)O)c2oc(N3Cc4ccccc4C3)cc(=O)c2c1 (single isomer, unassigned) [Example 362, 2-[1-(2-Isoindolin-2-yl-6-methyl-4-oxo-chromen-8-yl)ethylamino]benzoic acid]
1000 to 5000 | < 500 |  | Cc1cc(C(C)Nc2ccccc2C(=O)O)c2oc(N3Cc4ccccc4C3)c(C)c(=O)c2c1 (single isomer, unassigned; isomer 1) [Example 265, 2-[1-(2-Isoindolin-2-yl-3,6-dimethyl-4-oxo-chromen-8-yl)ethylamino]benzoic acid, Isomer 1]
< 500 | < 500 |  | CC(Nc1ccccc1C(=O)O)c1cc(C(F)(F)F)cc2c(=O)cc(N3Cc4ccc(C#N)cc4C3)oc12 (single isomer, unassigned; isomer 2) [Example 338, 2-[1-[2-(5-Cyanoisoindolin-2-yl)-4-oxo-6-(trifluoromethyl)chromen-8-yl]ethylamino]benzoic acid, Isomer 2]
1000 to 5000 | 1000 to 5000 |  | Cc1cc(C(C)Nc2ccccc2S(=O)(=O)O)c2oc(N3CCC(C)(C)CC3)cc(=O)c2c1 (stereo not shown) [Example 4, 2-[1-[2-(4,4-Dimethyl-1-piperidyl)-6-methyl-4-oxo-chromen-8-yl]ethylamino]benzenesulfonic acid]
1000 to 5000 | 1000 to 5000 |  | Cc1cc(C(C)Nc2cccc3c2C(=O)NC3)c2oc(N3CCC(C)(C)CC3)cc(=O)c2c1 (stereo not shown) [Example 29, 7-[1-[2-(4,4-Dimethyl-1-piperidyl)-6-methyl-4-oxo-chromen-8-yl]ethylamino]isoindolin-1-one]
500 to 1000 | 500 to 1000 |  | Cc1cc(C(C)Nc2ccccc2S(=O)(=O)C(F)F)c2oc(N3CCC(C)(C)CC3)cc(=O)c2c1 (stereo not shown) [Example 38, 8-[1-[2-(Difluoromethylsulfonyl)anilino]ethyl]-2-(4,4-dimethyl-1-piperidyl)-6-methyl-chromen-4-one]
1000 to 5000 | 500 to 1000 |  | Cc1cc(C(C)Nc2ccccc2-c2noc(=O)[nH]2)c2oc(N3CCC(C)(C)CC3)cc(=O)c2c1 (stereo not shown) [Example 45, 3-[2-[1-[2-(4,4-Dimethyl-1-piperidyl)-6-methyl-4-oxo-chromen-8-yl]ethylamino]phenyl]-4H-1,2,4-oxadiazol-5-one]
1000 to 5000 | 500 to 1000 |  | Cc1cc(C(C)Nc2cccc3cc(C(=O)O)sc23)c2oc(N3CCC(C)(C)CC3)cc(=O)c2c1 (stereo not shown) [Example 46, 7-[1-[2-(4,4-Dimethyl-1-piperidyl)-6-methyl-4-oxo-chromen-8-yl]ethylamino]benzothiophene-2-carboxylic acid]
1000 to 5000 | 500 to 1000 |  | Cc1cc(C(C)Nc2ccc(C3CC3)nc2C(=O)O)c2oc(N3CCC(C)(C)CC3)cc(=O)c2c1 (stereo not shown) [Example 50, 6-Cyclopropyl-3-[1-[2-(4,4-dimethyl-1-piperidyl)-6-methyl-4-oxo-chromen-8-yl]ethylamino]pyridine-2-carboxylic acid]
1000 to 5000 | 500 to 1000 |  | CC(Nc1ccccc1C(=O)O)c1cc(C(F)(F)F)cc2c(=O)cc(N3CCC(C)(C)CC3)oc12 (stereo not shown) [Example 57, 2-[1-[2-(4,4-dimethyl-1-piperidyl)-4-oxo-6-(trifluoromethyl)chromen-8-yl]ethylamino]benzoic acid]
500 to 1000 | 500 to 1000 |  | Cc1cc(C(C)Nc2ccccc2C(=O)O)c2oc(N3CCC(C)(C)CC3)c(C#N)c(=O)c2c1 (stereo not shown) [Example 392, 2-[1-[3-Cyano-2-(4,4-dimethyl-1-piperidyl)-6-methyl-4-oxo-chromen-8-yl]ethylamino]benzoic acid 2,2,2-trifluoroacetic acid]
